Laboratory results from US20140343324A1, “SYNTHETIC MATRIX FOR CONTROLLED CELL INGROWTH AND TISSUE REGENERATION” (Eidgenossische Technische Hochschule Zürich, priority 2001, published 2014).

Test system: human foreskin fibroblasts (hFFs)
Experiment: Three-dimensional cell invasion from hFF-fibrin clusters into PEG-based hydrogels
Conditions: compared with collagen type I derived GCRDGPQGIAGQDRCG
Method: Near-confluent cultures of human foreskin fibroblasts (hFFs) were trypsinized, centrifuged and resuspended in 2% (m/v) fibrinogen from human plasma (Fluka, Switzerland) in sterile phosphate buffered solution (PBS) to a concentration of […]. To induce gelation of the hFF-fibrinogen suspension, thrombin (Sigma T-6884, Switzerland) and Ca^++ were added to final concentrations of 2 NIH units/mL and 2.5 mM, respectively, and rapidly mixed with the cell suspension. Prior to gelation, 2 μL droplets of this cell-fibrinogen precursor were gelled on microscope slides for ca. 15 min. at 37° C. The hFF-fibrin clusters were embedded inside 25 μl PEG-based hydrogels by placing three to four clusters into precursor solution prior to gelation. Such hFF-fibrin clusters embedded inside the PEG-based hydrogels were cultured serum-containing DMEM in the 12-well tissue culture plates for up to 30 days. Cell invasion from the cluster into the synthetic gel matrix was imaged and recorded with their center plane in focus. To quantify the penetration depth of the outgrowth, the area of the original hFF-fibrin cluster was measured in the center plane, as was the area of the hFF outgrowth, defined by the tips of the hFF branches in the center plane of focus. […]

With “GCRDGPQGIWGQDRCG (Ac-GCRDGPQGIWGQDRCG-NH2; cysteine pairing not given here) [synthetic MMP substrate capable of forming a hydrogel by Michael-type addition]” the “degradation of MMP substrate in hydrogel” value was “degrades significantly faster”.
